Laboratory results as given in ChEMBL document CHEMBL2010754, “Unusual isomeric corniculatolides from mangrove, Aegiceras corniculatum” (J Nat Prod, 2012).
Active and inactive are the calls of the source.

How the values were obtained:
Type in all cases: functional, organism-based
Staphylococcus aureus = assay: Antibacterial activity against Staphylococcus aureus by agar diffusion method
Aspergillus terreus = assay: Antifungal activity against Aspergillus terreus by agar diffusion method
Bacillus subtilis = assay: Antibacterial activity against Bacillus subtilis by agar diffusion method
Aspergillus flavus = assay: Antifungal activity against Aspergillus flavus by agar diffusion method
Aspergillus niger = assay: Antifungal activity against Aspergillus niger by agar diffusion method
Escherichia coli = assay: Antibacterial activity against Escherichia coli by agar diffusion method
Micrococcus luteus = assay: Antibacterial activity against Micrococcus luteus by agar diffusion method
Klebsiella pneumoniae = assay: Antibacterial activity against Klebsiella pneumoniae by agar diffusion method

Measured: Activity

COc1c(O)cc2cc1Oc1ccc(cc1)CCCOC(=O)CC2
inactive: Staphylococcus aureus | Aspergillus terreus | Bacillus subtilis | Aspergillus flavus | Aspergillus niger | Escherichia coli | Micrococcus luteus | Klebsiella pneumoniae

COc1ccc2cc1Oc1ccc(cc1)CCCOC(=O)CC2
inactive: Staphylococcus aureus | Aspergillus terreus | Bacillus subtilis | Aspergillus flavus | Aspergillus niger | Escherichia coli | Micrococcus luteus | Klebsiella pneumoniae

O=C1CCc2ccc(O)c(c2)Oc2ccc(cc2)CCCO1
inactive: Staphylococcus aureus | Aspergillus terreus | Bacillus subtilis | Aspergillus flavus | Aspergillus niger | Escherichia coli | Micrococcus luteus | Klebsiella pneumoniae

O=C1CCc2ccc(cc2)Oc2cc(ccc2O)CCCO1
inactive: Staphylococcus aureus | Aspergillus terreus | Bacillus subtilis | Aspergillus flavus | Aspergillus niger | Escherichia coli | Micrococcus luteus | Klebsiella pneumoniae

COc1ccc2cc1Oc1ccc(cc1)CCC(=O)OCCC2
inactive: Staphylococcus aureus | Aspergillus terreus | Bacillus subtilis | Aspergillus flavus | Aspergillus niger | Escherichia coli | Micrococcus luteus | Klebsiella pneumoniae
